Experimental data published in ChEMBL document CHEMBL1151664, “Antitumor agents, 75. Synthesis of cytotoxic anthraquinones digiferruginol and morindaparvin-B” (1985).
≈ marks a conversion by molar mass, not a printed value.

Tested on: KB
Experiment: Cytotoxicity against human KB cells
Type: functional
Conditions: read-out: ED50 (the source's name)

`O=C1c2ccccc2C(=O)c2c1ccc(CO)c2O` [DIGIFERRUGINOL] was tested. Which EC50 did it give?
Its EC50 is 0.09 µg/mL (≈ 0.354 µM).
